Values quoted from earlier work, collected in patent US4996197A, “Pharmaceutical and/or cosmetic composition for local use containing Rhamsan gum” (Laboratoires Merck Sharp & Dohme-Chibret, priority 1987, dated 1991).

Conditions: with polyvinyl alcohol; Maichuk, Am. J. Ophthal, 74: 694, 1972

Nc1ccc(S(=O)(=O)[N-]c2cccnn2)cc1.[Na+] [sulphapyridazine sodium]
pharmacological response to medicinal products: enhances the pharmacological response

erythrocin propionate
pharmacological response to medicinal products: enhances the pharmacological response
